Tested on: Respiratory Syncytial Virus
Assay: In vitro screening for activity against RSV (tetrazolium-based colorimetric assay, protection against viral cytopathology)
Format: cell-based
Settings: Table 1; RSV in HeLa cells, MTT, seven days after infection; pEC50 = -log of EC50 in molar units
Excerpt: The percent protection against cytopathology caused by viruses (antiviral activity or EC50) achieved by tested compounds and their cytotoxicity (CC50) are both calculated from dose-response curves. The selectivity of the antiviral effect is represented by the selectivity index (SI), calculated by dividing the CC50 (cytotoxic dose for 50% of the cells) by the EC50 (antiviral activity for 50% of the cells). The tables in the above experimental part list the category to which each of the prepared compounds belong: Compounds belonging to activity category “A” have a pEC50 (−log of EC50 when expressed in molar units) equal to or more than 7. Compounds belonging to activity category “B” have a pEC50 value between 6 and 7.
Automated tetrazolium-based colorimetric assays were used for determination of EC50 and CC50 of test compounds. Flat-bottom, 96-well plastic microtiter trays were filled with 180 μl of Eagle's Basal Medium, supplemented with 5% FCS (0% for FLU) and 20 mM Hepes buffer. Subsequently, stock solutions (7.8× final test concentration) of compounds were added in 45 μl volumes to a series of triplicate wells so as to allow simultaneous evaluation of their effects on virus- and mock-infected cells. Five five-fold dilutions were made directly in the microtiter trays using a robot system. Untreated virus controls, and HeLa cell controls were included in each test. Approximately 100 TCID50 of Respiratory Syncytial Virus was added to two of the three rows in a volume of 50 μl. The same volume of medium was added to the third row to measure the cytotoxicity of the compounds at the same concentrations as those used to measure the antiviral activity. After two hours of incubation, a suspension (4×10^5 cells/ml) of HeLa cells was added to all wells in a volume of 50 μl. The cultures were incubated at 37° C. in a 5% CO2 atmosphere. Seven days after infection the cytotoxicity and the antiviral activity was examined spectrophotometrically. To each well of the microtiter tray, 25 μl of a solution of MTT (3-(4,5-dimethylthiazol-2-yl)-2,5-diphenyltetrazolium bromide) was added. The trays were further incubated at 37° C. for 2 hours, after which the medium was removed from each cup. Solubilization of the formazan crystals was achieved by adding 100 μl 2-propanol. Complete dissolution of the formazan crystals were obtained after the trays have been placed on a plate shaker for 10 min. Finally, the absorbances were read in an eight-channel computer-controlled photometer (Multiskan MCC, Flow Laboratories) at two wavelengths (540 and 690 nm). The absorbance measured at 690 nm was automatically subtracted from the absorbance at 540 nm, so as to eliminate the effects of non-specific absorption.
The percent protection against cytopathology caused by viruses (antiviral activity or EC50) achieved by tested compounds and their cytotoxicity (CC50) were both calculated from dose-response curves. The selectivity of the antiviral effect is represented by the selectivity index (SI), calculated by dividing the CC50 (cytotoxic dose for 50% of the cells) by the EC50 (antiviral activity for 50% of the cells).

Row | Structure (SMILES) | Activity
1 | Cc1ccc(O)c(Cn2c(N)nc3ccc(CNc4cccc(Br)c4)cc32)n1 [Compound 3] | 8.6
2 | Cc1ccc(O)c(Cn2c(N)nc3ccc(CNc4cc(C(F)(F)F)cc(C(F)(F)F)c4)cc32)n1 [Compound 74] | 7.1
3 | Cc1ccc(O)c(Cn2c(N)nc3ccc(CNc4cccc(Oc5ccccc5)c4)cc32)n1 [Compound 71] | 7.1
4 | Cc1ccc(O)c(Cn2c(N)nc3ccc(CNc4ccccc4C(F)(F)F)cc32)n1 [Compound 48] | 7.6
5 | Cc1ccc(O)c(Cn2c(N)nc3ccc(CNc4cccc5cccnc45)cc32)n1 [Compound 44] | 7.6
6 | Cc1ccc(O)c(Cn2c(N)nc3ccc(CNc4cc(Cl)cc(Cl)c4)cc32)n1 [Compound 2] | 8.6
7 | Cc1ccc(O)c(Cn2c(N)nc3ccc(CNc4ccccc4Br)cc32)n1 [Compound 20] | 8.0
8 | Cc1ccc(O)c(Cn2c(N)nc3ccc(CNc4cc(Cl)c(O)c(Cl)c4)cc32)n1 [Compound 72] | 7.1
9 | Cc1ccc(O)c(Cn2c(N)nc3ccc(CNc4ccc(C)c(F)c4)cc32)n1 [Compound 60] | 7.3
10 | Cc1ccc(NCc2ccc3nc(N)n(Cc4nc(C)ccc4O)c3c2)cc1 [Compound 67] | 7.3
11 | Cc1ccc(O)c(Cn2c(N)nc3ccc(CNc4cccc(C)c4CCO)cc32)n1 [Compound 84] | 9
12 | Cc1ccc(O)c(Cn2c(N)nc3ccc(CNc4ccc5c(c4)CCC5)cc32)n1 [Compound 36] | 7.7
13 | CC(=O)c1cccc(NCc2ccc3nc(N)n(Cc4nc(C)ccc4O)c3c2)c1 [Compound 42] | 7.6
14 | Cc1ccc(O)c(Cn2c(N)nc3ccc(CNc4cccc(Cl)c4C)cc32)n1 [Compound 29] | 7.8
15 | Cc1ccc(O)c(Cn2c(N)nc3ccc(CNc4ccccc4CCO)cc32)n1 [Compound 81] | 9.4
16 | COc1ccc(NCc2ccc3nc(N)n(Cc4nc(C)ccc4O)c3c2)cc1OC [Compound 61] | 7.3
17 | COc1ccc(NCc2ccc3nc(N)n(Cc4nc(C)ccc4O)c3c2)cc1F [Compound 28] | 7.8
18 | Cc1ccc(O)c(Cn2c(N)nc3ccc(CNc4cc(C(=O)O)cc(C(F)(F)F)c4)cc32)n1 [Compound 78] | 6.6
19 | C#Cc1cccc(NCc2ccc3nc(N)n(Cc4nc(C)ccc4O)c3c2)c1 [Compound 6] | 8.5
20 | CCOC(=O)c1ccc(NCc2ccc3nc(N)n(Cc4nc(C)ccc4O)c3c2)c(O)c1 [Compound 14] | 8.3
21 | COc1cc(NCc2ccc3nc(N)n(Cc4nc(C)ccc4O)c3c2)cc(C(F)(F)F)c1 [Compound 57] | 7.4
22 | Cc1ccc(O)c(Cn2c(N)nc3ccc(CNc4ccc(Br)c(C)c4)cc32)n1 [Compound 56] | 7.4
23 | CSc1cccc(NCc2ccc3nc(N)n(Cc4nc(C)ccc4O)c3c2)c1 [Compound 15] | 8.3
24 | CCCCNS(=O)(=O)c1cccc(NCc2ccc3nc(N)n(Cc4nc(C)ccc4O)c3c2)c1 [Compound 47] | 7.6
25 | CCc1cccc(NCc2ccc3nc(N)n(Cc4nc(C)ccc4O)c3c2)c1 [Compound 18] | 8.0
26 | Cc1ccc(O)c(Cn2c(N)nc3ccc(CNc4cccc(Cc5ccccc5)c4)cc32)n1 [Compound 79] | 6.4
27 | Cc1ccc(O)c(Cn2c(N)nc3ccc(CNc4ccc(S(N)(=O)=O)cc4)cc32)n1 [Compound 10] | 8.4
28 | Cc1ccc(O)c(Cn2c(N)nc3ccc(CNc4ccc(F)c(F)c4)cc32)n1 [Compound 55] | 7.4
29 | Cc1ccc(O)c(Cn2c(N)nc3ccc(CNc4ccccc4)cc32)n1 [Compound 21] | 7.9
30 | Cc1ccc(O)c(Cn2c(N)nc3ccc(CNc4cccc(CO)c4)cc32)n1 [Compound 26] | 7.9

Same assay, conditions: Table 2; RSV in HeLa cells, MTT, seven days after infection; pEC50 = -log of EC50 in molar units

Row | Structure (SMILES) | Activity
31 | C#Cc1cccc(NCc2ccc3c(c2)nc(N)n3Cc2nc(C)ccc2O)c1 [Compound 127] | <4.0
32 | Cc1ccc(O)c(Cn2c(N)nc3cc(CNc4cc(Cl)cc(Cl)c4)ccc32)n1 [Compound 121] | 5.8

Same assay, conditions: Table 3; RSV in HeLa cells, MTT, seven days after infection; pEC50 = -log of EC50 in molar units

Row | Structure (SMILES) | Activity
33 | Cc1ccc(O)c(Cn2c(N)nc3ccc(CN(CCC(N)=O)c4cc(Cl)cc(Cl)c4)cc32)n1 [Compound 167] | 9.4
34 | Cc1ccc(O)c(Cn2c(N)nc3ccc(CN(CCO)c4cnc5ccccc5c4)cc32)n1 [Compound 175] | 8.5

Same assay, conditions: Table 4; RSV in HeLa cells, MTT, seven days after infection; pEC50 = -log of EC50 in molar units

Row | Structure (SMILES) | Activity
35 | CCc1cccc(NCc2ccc3ncn(Cc4nc(C)ccc4O)c3c2)c1 [Compound 187] | 5.7
36 | Cc1cccc(N(CCO)Cc2ccc3ncn(Cc4nc(C)ccc4O)c3c2)c1 [Compound 193] | 6.3

Same assay, conditions: Table 5b; RSV in HeLa cells, MTT, seven days after infection; pEC50 = -log of EC50 in molar units

Row | Structure (SMILES) | Activity
37 | Cc1ccc(CCCO)c(NCc2ccc3nc(N)n(Cc4cccc5cccnc45)c3c2)c1 [Compound 208] | 7.9
38 | Cc1ccc(CCCO)c(NCc2ccc3nc(N)n(Cc4cccc(Br)n4)c3c2)c1 [Compound 228] | <4
39 | Cc1ccc(CCCO)c(NCc2ccc3nc(N)n(Cc4nc(C)c(C)nc4C)c3c2)c1 [Compound 218] | 6.1
40 | COc1ccc(C)nc1Cn1c(N)nc2ccc(CNc3cc(C)ccc3CCCO)cc21 [Compound 234] | <4

Same assay, conditions: Table 6; numeric activity values, pEC50 (−log of EC50 in molar units)

Row | Structure (SMILES) | Activity
41 | Cc1ccc(O)c(Cn2cnc3cc(CNc4cccc(F)c4)ccc32)n1 [Compound 293] | <4.0
42 | Cc1ccc(O)c(Cn2cnc3cc(C=Cc4ccccc4)ccc32)n1 [Compound 249] | <4.0
43 | Cc1ccc(O)c(Cn2cnc3ccc(NC(=O)Cc4ccccn4)cc32)n1 [Compound 276] | <4.0
44 | Cc1ccc(O)c(Cn2cnc3cc(NC(=O)CCc4ccccc4)ccc32)n1 [Compound 280] | <4.0
45 | Cc1ccc(O)c(Cn2cnc3cc(NC(=O)c4cccnc4)ccc32)n1 [Compound 279] | <4.0
46 | Cc1ccc(O)c(Cn2cnc3ccc(CO)cc32)n1 [Compound 247] | <4.0
47 | Cc1ccc(O)c(Cn2cnc3cc(CNCc4ccco4)ccc32)n1 [Compound 271] | <4.0
48 | Cc1ccc(O)c(Cn2cnc3cc(C(O)c4ccccc4)ccc32)n1.O=C(O)C(=O)O (centres unmarked) [Compound 274] | <4.0
49 | Cc1ccc(O)c(Cn2cnc3cc(CNc4ccccc4)ccc32)n1 [Compound 296] | <4.0
50 | Cc1cccc(NCc2ccc3c(c2)ncn3Cc2nc(C)ccc2O)c1 [Compound 265] | <4.0
51 | COCCNCc1ccc2c(c1)ncn2Cc1nc(C)ccc1O [Compound 269] | <4.0
52 | Cc1ccc(O)c(Cn2cnc3cc(NC(=O)Cc4ccccn4)ccc32)n1 [Compound 281] | <4.0
53 | Cc1ccc(O)c(Cn2cnc3cc(CNc4cccc(C)c4C)ccc32)n1 [Compound 295] | <4.0
54 | Cc1ccc(O)c(Cn2cnc3cc(CNCCCc4ccccc4)ccc32)n1 [Compound 272] | <4.0
55 | Cc1ccc(O)c(Cn2cnc3cc(CNCCCC4CCC(=O)N4)ccc32)n1 (centres unmarked) [Compound 241] | 4.5
56 | CC(=O)c1cccc(NCc2ccc3ncn(Cc4nc(C)ccc4O)c3c2)c1 [Compound 282] | <4.0
57 | Cc1cc(C)cc(NCc2ccc3c(c2)ncn3Cc2nc(C)ccc2O)c1 [Compound 289] | <4.0
58 | Cc1ccc(O)c(Cn2cnc3cc(CNC4CCNCC4)ccc32)n1.Cl [Compound 262] | <4.0
59 | Cc1ccc(O)c(Cn2cnc3cc(CNCCCN4CCOCC4)ccc32)n1.Cl [Compound 258] | <4.0
60 | Cc1ccc(O)c(Cn2cnc3cc(NC(=O)C4CCN(CCN)CC4)ccc32)n1 [Compound 245] | 4.2
61 | Cc1ccc(O)c(Cn2cnc3ccc(NC(=O)c4cccnc4)cc32)n1 [Compound 278] | <4.0

Same assay, conditions: human respiratory syncytial virus, 168 h; Table 4; RSV in HeLa cells, MTT, seven days after infection; pEC50 = -log of EC50 in molar units; read-out: Activity (converted)

Row | Structure (SMILES) | EC50 [nM]
62 | Cc1ccc(O)c(Cn2cnc3ccc(CNc4cccc(Cl)c4)cc32)n1 [Compound 186, 2-{6-[(3-chloro-phenylamino)-methyl]-benzoimidazol-1-ylmethyl}-6-methyl-pyridin-3-ol] | 1580
